The results in this text go back to a melting point compilation (Tetko et al.; mined from patent text by program, amines drawn as free bases though some values may be those of a salt).

Bounds are passed on as bounds.

For the molecule `CN1C(=O)CN2CC(CCl)OC2(c2ccccc2)c2cc(Cl)ccc21` (stereo unspecified), the melting point – broadly, the temperature, or range, at which the solid turns liquid – fell in the range of 140 to 142 °C. For `CC(=O)Oc1c2ccc(C(F)(F)F)cc2c(OC(C)=O)c2cc3ccccc3cc12` the value was 285 to 288 °C; for `COC(=O)[C@H]1C[C@H](C(=O)O)Nc2cccc(Cl)c21` (relative stereo), 159 to 161 °C. `Cc1ccc2sc(S(=O)(=O)c3ccc(=O)[nH]n3)cc2c1` had a melting point of 240 to 242 °C. Take `CSc1nc2sccc2c(=O)[nH]1`: the melting point was 232 to 235 °C. `COc1ccc2c(c1)c(CO)nn2Cc1ccccc1` came in with a melting point of 97 to 98 °C. `COc1ccc2cccc3c2c1CCC3CNC(C)=O` (stereo unspecified) gave a melting point of 126 °C. With `NC(=NO)c1ncn2c1[C@@H]1CCCN1C(=O)c1c(Cl)cccc1-2`, the melting point lay within 249 to 250 °C. Turning to `COC(=O)c1ccccc1S(=O)(=O)NC(=O)c1ccc2c(C)cc(C)nn12`, the melting point lay in the range of 200 to 202 °C. For `CCNC(=O)NC(CC)c1ccc(Cl)c2nc3n(c12)CCCN3c1ccc(Cl)cc1Cl` (stereo unspecified) the value was 250 to 252 °C. In the case of `Brc1cnc(-c2ccccc2)c2ccccc12`, the melting point was in the range of 123 to 125 °C. Molecule `COc1ccc(-c2nc(S(C)(=O)=O)ncc2C(=O)N2CCOCC2)cc1OC` showed a melting point of 77 °C. `CCC#CCOc1cc(/C=C/C(=O)Nc2ccccc2C(=O)O)ccc1OC` returned a melting point of 124 to 125 °C.

In turn, `CN(Cc1ccccc1)C(=O)COc1ccc([N+](=O)[O-])cc1` returned a melting point of 95 to 96 °C.

In turn, `O=C1NCCN1S(=O)(=O)c1ccc(F)cc1` showed a melting point of 183 to 185 °C.

In turn, `CC#CCOc1cc(Oc2c(F)cc(F)cc2F)ncn1` displayed a melting point of 60.3 °C. As for `Nc1cccc(Cn2c(-c3ccc(-c4ccccc4)cc3)ccc2-c2ccccc2Cl)n1`, the figure is 181 to 185 °C; as for `CC(=O)Nc1ccc(/C=C/C(=O)NCC(=O)N(C)c2ccc(C)c(CCl)c2C)cn1`, 218 to 220 °C.

On to `COCn1ccnc1C(O)(c1ccc(F)cc1)c1ccc(Cl)cc1Cl` (stereo unspecified), for which the melting point came out at 179 °C. As for `c1coc(Cn2c(NC3CCN(CCNc4nccs4)CC3)nc3ccccc32)c1`, the figure is 153 °C; as for `Cc1nc(NC(=O)Nc2ccc(F)cc2)sc1C(=O)NCc1ccccc1`, above 300 °C; as for `Cc1cc(C(=O)c2ccccc2C(F)(F)F)c(N)s1`, 136 to 137 °C.

Regarding `COCCCn1c(O)nc2ccc(C(F)(F)F)cc21`, the melting point was in the range of 83 to 84 °C. For `Cn1nc(Cc2ccc([N+](=O)[O-])cc2)oc1=O` the value was 115 to 116 °C; for `CC(CO)c1ccc(O)c(Cc2ccccc2O)c1` (stereo unspecified), 86 to 89 °C; for `Cc1ccc(S(=O)(=O)C(C)(C)C(=O)c2ccccc2)cc1`, 64 to 64.5 °C. The molecule `Cc1ccsc1-c1ccc(C2(C)NC(=O)NC2=O)cc1` (stereo unspecified) gave a melting point of 201 to 202 °C. Molecule `CN(C)C(=O)Sc1ccc(C(=O)c2ccccc2C#N)cc1` displayed a melting point of 112 °C. For `c1ccc(N=C(Nc2ccccc2)c2ccccc2)cc1` the value was 143 to 144 °C; for `CCc1nc2c(C)cc(C)nc2n1Cc1ccc(C(=C(Cl)C(=O)O)c2ccccc2)cc1`, 120 to 125 °C; for `CC(C)CC(NC(=O)OCc1ccccc1)C(=O)NC(C#N)COCc1ccccc1` (stereo unspecified), 126 to 127 °C.

Take `CCNc1cc(C(C)=NO)ccn1`: the melting point was 155 to 156 °C.

`CCOc1ccc2c(c1)n(C1CCCCC1)c(=O)n2S(=O)(=O)c1ccc(NC(=O)Oc2ccccc2)cc1OC` returned a melting point of 197 °C.

On to `Cn1c(OC2CCOC2)n[nH]c1=O` (stereo unspecified), for which the melting point amounted to 164 °C. `COc1ncnc(-c2cc(N)c(C#N)cc2F)c1Cl`: the melting point lay within 186 to 189 °C. Molecule `CCOC(=O)CCC1(NC(=O)c2ccc(Cl)c(Cl)c2)C(=O)N(CC(=O)O)c2ccccc21` (stereo unspecified) returned a melting point of 219 to 220 °C. As to `CCOCc1c2c(n(Cc3ccccc3)c1-c1ccccc1)C(C)CN(Cc1ccccc1)C2` (stereo unspecified), the melting point fell in the range of 96 to 98 °C.

The molecule `CC(=O)Nc1ccc(CC(=O)O)cc1Br` came in with a melting point of 157 to 159 °C. For `CC(=O)NCC1CN(c2ccc(N3CCN(c4nc5cc([N+](=O)[O-])ccc5o4)CC3)c(F)c2)C(=O)O1` (stereo unspecified) the value was 224 to 225 °C; for `CC1(c2nn(-c3ccc([N+](=O)[O-])cc3Cl)c(=O)o2)CC1`, 95 to 97 °C; for `O=C(Nc1ccc2ccc(Oc3ccccc3)nc2n1)C1=CSCCS1`, 240 °C.

`CCn1ncnc1COc1nc2c(cc1C(C)(C)C)nnn2-c1ccccc1F` returned a melting point of 117 to 120 °C.

Take `O=[N+]([O-])c1cccc2c1OC(CO)C2` (stereo unspecified): the melting point was 63 to 65 °C. `CCc1noc(-c2ncn(-c3cccnc3)c2C)n1`: the melting point fell in the range of 127 to 128 °C. `O=C(CCCCCCCc1ccccc1)NNC(=O)c1ccc(O)cc1` had a melting point of 150 to 152 °C. For `C[C@@H]1Cc2cc(N3C[C@H](C(N)=O)OC3=O)ccc2N1C=O` the value was 228 to 230 °C; for `COC1=C(OC)C(=O)C2=C(CCC(CCOc3ccc(C#N)cc3)CC2)C1=O`, 105 to 107 °C.

The molecule `O=C(O)CCCCCCCSc1ccc(Cl)cc1` showed a melting point of 92 to 93 °C.

Turning to `CCC1CCCCN1C(=O)C=Cc1c(-c2ccncc2)nn2ccccc12` (stereo unspecified), the melting point lay in the range of 150 to 153 °C. `CC(C)(C)c1cc(P(c2ccccc2)c2ccccc2)cc(C(C)(C)C)c1O` returned a melting point of 92 to 93 °C. With `CCc1nc(-c2cc3[nH]c(=O)c(=O)[nH]c3cc2[N+](=O)[O-])c[nH]1`, the melting point is 249 to 250 °C.

`COc1cc2ncnc(N3CCN(C(=O)Nc4ccccc4)CC3)c2cc1OC`: the melting point is 121 to 123 °C.

In turn, `CCOC(=O)c1cc(OCC)c(OCC)cc1N` yielded a melting point of 69 to 71 °C. Turning to `O=C(CN1CCN(C(CO)C(=O)O)CCN(C(CO)C(=O)O)CCN(C(CO)C(=O)O)CC1)NCCOCCO` (stereo unspecified), the melting point is 145 to 150 °C.

The molecule `CCCc1nc2c(N)nc3ccccc3c2n1CCCCC(=O)N1CCOCC1` showed a melting point of 178 to 179 °C. In turn, `O=C(NCCc1ccccc1Cl)C1CCCCC1` had a melting point of 93.5 to 93.9 °C.

On to `O=C(Nc1ccc2c(c1)C=CC2)C(F)(F)F`, for which the melting point worked out at 132 °C. `CN(c1ccc2sccc2c1)c1nc(=O)c2cccnc2s1` yielded a melting point of 214 to 216 °C. As for `COc1cc(N)c(Cl)cc1C(=O)N[C@H]1CCN(CCNc2ncccc2C#N)C[C@H]1OC` (relative stereo), the figure is 134 °C; as for `O=C1c2ccccc2C(=O)N1CCCCc1ccccc1`, 87 to 90 °C. Molecule `CC(C)=NOCc1nc2c(N)nc3cccnc3c2n1CCCNC(=O)C(C)C` came in with a melting point of 195 to 197 °C.

Molecule `COC(=O)c1nc2c(CBr)cccc2n1COCC[Si](C)(C)C` yielded a melting point of 85 to 86 °C.

The molecule `S=C1N[C@@H](c2ccccc2)[C@H](c2ccccc2)N1` (relative stereo) displayed a melting point of 212 to 214 °C. As for `Nc1ccccc1NC(=O)c1ccc(CNc2c(NCc3cccnc3)c(=O)c2=O)cc1`, the melting point turned out to be 230 °C. The molecule `CC(C)OCCOc1c(-c2ccc(S(N)(=O)=O)cc2)cnn(-c2ccc(F)c(F)c2)c1=O` returned a melting point of 54 to 56 °C. For `CCOC(=O)c1cnoc1-c1ccc(F)cc1`, the melting point is 34 to 38 °C. `CC(C)(C)OC(=O)Nc1ccc(Br)cc1` came in with a melting point of 101 to 103 °C. With `CCC(C(=O)N(CC)CC)n1ccc(-c2ccccc2)n1` (stereo unspecified), the melting point fell in the range of 63 to 66 °C. Turning to `Cc1cccc(NC(=O)CCCCl)c1CNc1cccn2c(C)c(C)nc12`, the melting point fell in the range of 138 to 140 °C. `C/C=C/C=C(\C[C@H](N)C(=O)O)C(=O)O`: the melting point was determined as 190 °C. Regarding `O=C(OCc1cc(-c2ccccc2)c(=O)n2c1-c1sccc1CN2)N1CCOCC1`, the melting point fell in the range of 207 to 210 °C. With `CN(C(=O)c1cc(-c2ccccc2)c2sccc2c1)c1ccccc1`, the melting point amounted to 127 °C. In turn, `Cc1c(NC(=O)CC(C)(C)C)c(C)c2c(c1-c1cccnc1)OCC2c1ccc(C(C)C)cc1` (stereo unspecified) returned a melting point of 142 to 144 °C.

In turn, `CNC(=O)C(=NOC)c1ccccn1` displayed a melting point of 132 to 133 °C. `CC(C)(C)c1cc(OCc2ccc(C(=O)O)cc2)cc(C(C)(C)C)c1`: the melting point fell in the range of 212 to 215 °C. For `COc1cccc2c(=O)c3cc(F)ccc3oc12`, the melting point is 170 to 172 °C. For `O=C(CC(CC1CCCCC1)(C(=O)O)C(=O)O)c1ccco1` the value was 127 to 130 °C.

`C=C1C(=O)N[C@@H](Cc2ccccc2)C(=O)N1C(C)C` returned a melting point of 141 to 142 °C.

`CCCSc1ncc(CC(NC(=O)C2CCCC2)C(=O)O)n1Cc1ccccc1Cl` (stereo unspecified) gave a melting point of 173 to 175 °C.

`Cc1ccc(Cc2cnc(NCCCCNc3ncccc3Cl)[nH]c2=O)cn1` returned a melting point of 180 to 182 °C. Take `O=C(O)c1cccc(-c2cccn3cc(Cc4cccc(C(F)(F)F)c4)nc23)c1`: the melting point lay in the range of 179 to 180 °C. Turning to `CCCn1c(=O)c2[nH]c(/C=C/c3cc(OC)c(OC)cc3OC)nc2n(CCC)c1=O`, the melting point lay within 254 to 256 °C. `Cc1cc(C(=O)c2[nH]c3cc(Cl)ccc3c2N)ccc1Cl` yielded a melting point of 142 to 143 °C.

Regarding `OCc1ccc(-c2ccc(-c3cn([C@H]4CN5CCC4CC5)nn3)cc2)s1`, the melting point came out at 234 °C. As for `COC(=O)CCC(NC(c1ccccc1)c1ccccc1)P(O)O` (stereo unspecified), the figure is 162 to 164 °C; as for `Cc1nc2cc3c(cc2[nH]1)[nH]c(=O)n3C`, 300 °C; as for `O=S(=O)(c1ccc(O)cc1)c1ccc(O)c2ccccc12`, 198 to 199 °C. For `CCS(=O)(=O)c1ccc2cc(C(C)=O)ccc2c1` the value was 133 °C. For the molecule `COC(=O)OCC(CO)CCn1cnc2cnc(N)nc21` (stereo unspecified), the melting point lay within 129 to 132 °C. `CC(C)(C)OC(=O)C[C@@H]1C[C@@H](COc2ccc(-c3ccc(C#N)c(F)c3)cc2)NC1=O` had a melting point of 142 to 144 °C. With `CC(=O)OC(c1ccc(Cl)c2nc3n(c12)CCCN3c1ccc(Cl)cc1Cl)C1CC1` (stereo unspecified), the melting point was 208 to 210 °C.
